Results: PubChem BioAssay AID624344 (Sanford-Burnham Center for Chemical Genomics, 2012)
Active and inactive are the calls of the source. How the calls were made is not given here.

Legend:
[1] = NFkB reporter suppression in cystic fibrosis bronchial cells – cell-based, uHTS hits, panel, cytotoxicity readout, dose response (AID 624344); conditions: CF bronchial epithelial cells, PAF-induced NFkB reporter inhibition; with PAF, mean of runs
Cytotoxicity = assay: as above; conditions: CF bronchial epithelial cells, mean of runs

| Structure (SMILES) | IC50 [1] | IC50 (Cytotoxicity) |
| --- | --- | --- |
| Cc1cnc(C=O)c2cccc([N+](=O)[O-])c12 | 3.35 µM | 60.6 µM (inactive) |
| CCOC(=O)COc1ccc2ccccc2c1/C=C/[N+](=O)[O-] | 8.1 µM | 4.6 µM |
| COC(=O)N1C(=O)[C@@](c2ccc(OC)cc2)(C(C)C)N1C(=O)OC | 4.72 µM | 49.1 µM |
| COc1ccc2cc3c(N)nn(C(=O)c4ccc(F)cc4)c3nc2c1 | 1.29 µM | 36.6 µM |
| Cc1ccc(-c2cc(C(=O)N/N=C/c3c(C)nn(-c4ccccc4)c3C)[nH]n2)cc1 | inactive | > 79 µM (inactive) |
| CCc1cc2c(Sc3nc4ccccc4s3)ncnc2s1 | 1.03 µM | 1.74 µM |
| COc1ccc(-c2cc(NC=O)c3ncc(-c4ccc(OC)c(OC)c4)n3c2)c(OC)c1 | 11.7 µM | 29.8 µM |
| Cc1ccnc(NC(=O)CCCOc2cc(=O)n(C)c3ccccc23)c1 | 11.2 µM | 62.3 µM (inactive) |
| CC1Cc2ccccc2N1c1ncnc2nc[nH]c12 (stereo unspecified) | 2.46 µM | 36.2 µM |
| COc1ccc(C2=Nn3c(nnc3-c3ccccc3OC)SC2)cc1OC1CCOC1 (stereo unspecified) | 4.85 µM | > 79 µM (inactive) |
| CCN1CCN(Cc2ccc(NC(=O)c3ccc(C)c(NC(=O)c4csc(-c5ccncc5)n4)c3)cc2C(F)(F)F)CC1 | 6.08 µM | 19.9 µM |
| CCN(CC)S(=O)(=O)c1ccc(NC(=O)Nc2cccc(C(F)(F)F)c2)cc1 | 6.03 µM | 12.2 µM |
| CC(=O)Nc1ccc(-c2ccnc3c2CC(C(=O)NCc2ccco2)O3)cc1 (stereo unspecified) | inactive | > 79 µM (inactive) |
| COc1ccccc1NS(=O)(=O)c1cccc(-n2c(O)c(C=Nc3ccccc3C(=O)O)c3ccccc3c2=O)c1 | 5.54 µM | 37.1 µM |
| N=C1N(c2ccccc2)C(=S)C(=Nc2ccccc2)N1c1ccccc1 | 14.7 µM | 33 µM |
| COc1ccc2[nH]c(=O)c3c(c2c1)OC(C)(C)C=C3 | 1.67 µM | 19.8 µM |
| Nc1ncnc(NCc2ccc(F)cc2)c1[N+](=O)[O-] | 3.33 µM | > 79 µM (inactive) |
| CC(=O)Nc1ccc(S(=O)(=O)N2c3ccccc3C(C)=CC2(C)C)cc1 | inactive | 44.5 µM |
| Cn1cccc1C(=O)NC(=O)COC(=O)c1ccc(S(C)(=O)=O)c([N+](=O)[O-])c1 | 5.26 µM | 5.85 µM |
| CCCCn1nnnc1C(CCc1ccccc1)N1CCC(n2c(=O)[nH]c3ccccc32)CC1 (stereo unspecified) | 5.91 µM | 12 µM |
| CC(C)c1ccccc1NC(=O)COC(=O)c1c2c(nc3ccccc13)CCN(Cc1ccccc1)C2 | 6.98 µM | 21.2 µM |

| Structure (SMILES) | IC50 [1] | IC50 (Cytotoxicity) |
| --- | --- | --- |
| O=C(NCCc1ccccc1)c1coc(=O)c(Br)c1 | 4.91 µM | 11.5 µM |
| Cc1ccc2c(c1)C(=O)C(=O)N2Cc1ccc(C(F)(F)F)cc1 | inactive | > 79 µM (inactive) |
| CC1(C)Cc2c(ccc3ccccc23)C(=O)N1 | 3.27 µM | > 79 µM (inactive) |
| Cc1cc(C)cc(NS(=O)(=O)c2ccc(-c3cnc(C4CC4)o3)cc2)c1 | 12.1 µM | 40.9 µM |
| Clc1ccccc1C1=Nn2c(nnc2-c2ccncc2)SC1 | 0.624 µM | > 79 µM (inactive) |
| CN(C)c1ccc(C(C(=O)NC2CCCCC2)N(Cc2ccco2)C(=O)c2snc(C(N)=O)c2N)cc1 (stereo unspecified) | 4.04 µM | 9.1 µM |
| Nc1cc2c(cc1Br)-c1ccccc1C2=NO | 11.9 µM | 60.6 µM (inactive) |
| COc1cccc(C(=O)N2C(C(C)C)COc3cc(Br)ccc3S2(=O)=O)c1 (stereo unspecified) | 12 µM | 24.7 µM |
| O=C(CC12CC3CC(CC(C3)C1)C2)Nc1nncs1 | inactive | 54.5 µM (inactive) |
| Cc1ccc(C(=O)Nc2cccc(C(F)(F)F)c2)cc1NC(=O)c1cnnc2ccccc12 | 6.43 µM | 22.6 µM |
| O=c1[nH]c2ccccc2n1C1CCN(C(c2cccc3ccccc23)c2nnnn2Cc2ccccc2)CC1 (stereo unspecified) | 3.25 µM | 10 µM |
| COc1cccc(NC(=O)CN(C)CC(=O)Nc2ccc(C)c([N+](=O)[O-])c2)c1 | 6.21 µM | > 79 µM (inactive) |
| O=C(c1[nH]c(C(F)(F)F)nc1-c1ccccc1)N1CCN(c2c(Cl)cncc2Cl)CC1 | 10.4 µM | > 79 µM (inactive) |
| CC(=O)OCCCNc1cc(Sc2ccc(Cl)cc2)c2nonc2c1[N+](=O)[O-] | 13 µM | 11.1 µM |
| Cc1ccc(N=Cc2cc3c(cc2O)OC(N)=C(C#N)C3c2ccccc2)cc1 (stereo unspecified) | 2.07 µM | 53.6 µM (inactive) |
| COc1cc(/C=C2\SC(=O)N(CCNC(=O)c3sc4cc(F)ccc4c3Cl)C2=O)cc(OC)c1OC | 7.99 µM | 11.3 µM |
| O=C(N/N=C/c1ccccc1)c1[nH]c2ccc(Br)cc2c1-c1ccccc1 | 6.11 µM | 40.6 µM |
| COc1cccc(OC)c1C(=O)Nc1cc(C)nn1-c1nc2ccccc2[nH]1 | 3.77 µM | 10 µM |
| Cc1ccc(S(=O)(=O)Nc2nc3ccccc3nc2Nc2cccc(S(=O)(=O)N3CCCC3)c2)cc1 | 3.57 µM | 41.3 µM |
| CC(C)c1nc(Cl)c(C#N)c2c1CCCC2 | 3.57 µM | 71.6 µM (inactive) |
| CN(C)C=Nc1c(C(=O)c2ccccc2)sc2nccc(N(C)C)c12 | 10.9 µM | > 79 µM (inactive) |

| Structure (SMILES) | IC50 [1] | IC50 (Cytotoxicity) |
| --- | --- | --- |
| COc1ccc(Cc2nnc(SCc3ccc([N+](=O)[O-])cc3)o2)cc1 | 1.76 µM | 41.8 µM |
| O=[N+]([O-])c1ccc(Oc2ccc(F)cc2)c2ccncc12 | 1.82 µM | 42.4 µM |
| COc1cccc(-c2ccc3ncnc(NCc4cccs4)c3c2)c1 | 2.91 µM | 13.6 µM |
| CNC(=O)c1ccc(NC(=O)C2CCN(c3ncnc4sc(C)c(C)c34)CC2)cc1 | 5.49 µM | > 79 µM (inactive) |
| CCOc1ccccc1NC(=O)c1nc(S(=O)(=O)Cc2ccccc2)ncc1Cl | 1.83 µM | 2.27 µM |
| CN(C)C(=O)c1cccc(-c2cnc3sc(NCc4ccc5c(c4)OCO5)nn23)c1 | 1.69 µM | 46.5 µM |
| CC1=C(/C=C/C(C)=C/C=C/C(C)=C\C(=O)O)C(C)(C)CCC1 | 0.64 µM | > 79 µM (inactive) |
| COc1cc(C2c3cc4c(cc3C3OC(=O)C2C3CO)OCO4)cc(OC)c1OC (stereo unspecified) | inactive | > 79 µM (inactive) |
| C[C@H]1CCCC(=O)CCC/C=C/c2cc(O)cc(O)c2C(=O)O1 | 14 µM | 25.9 µM |
| C=C1C(=O)O[C@@H]2[C@H]1CC[C@H](C)[C@]1(O)CCC(=O)[C@@]21C | 2.37 µM | 40 µM |
| COCCN1Cc2cccc(C(=O)Nc3cccc(-c4nc5ccccc5[nH]4)c3)c2C1=O | 7.9 µM | 11.1 µM |
| Clc1cncc(Cl)c1N/N=C/c1ccncc1 | 1.67 µM | 12.5 µM |
| Nc1ncnc2c1c(-c1ccc(Oc3ccccc3)cc1)cn2C1CCCC1 | 6.66 µM | 11.3 µM |
| FC(F)(F)c1nnc2c(Sc3ccccc3)nc3ccccc3n12 | 2.76 µM | 3.54 µM |
| CCOC(=O)c1c(C)cc2c(CO)n[nH]c(=O)c2c1C | 6.83 µM | 62.8 µM (inactive) |
| CCCc1nnc(NC(=O)c2nc(S(=O)(=O)Cc3ccc(C)cc3)ncc2Cl)s1 | 1.23 µM | 3.08 µM |
| O=C(Nc1nnc(C(F)(F)F)s1)c1ccc(Br)s1 | 2.28 µM | 27.8 µM |
| O=C(COC(=O)c1ccccc1C(=O)c1ccc(Cl)c([N+](=O)[O-])c1)NC1CCCCCC1 | 1.6 µM | 5.03 µM |
| CCCC1/C(=N/O)CC(c2ccccc2)NC1c1ccccc1 (stereo unspecified) | 5.52 µM | 6.23 µM |
| COc1ccc(-c2csc(NC3OC(=O)c4c3ccc(OC)c4OC)n2)cc1OC (stereo unspecified) | 3.12 µM | > 79 µM (inactive) |
| NS(=O)(=O)c1ccc(CCNc2nn3c(-c4cccc(OC(F)(F)F)c4)cnc3s2)cc1 | 3.64 µM | 19.7 µM |

| Structure (SMILES) | IC50 [1] | IC50 (Cytotoxicity) |
| --- | --- | --- |
| c1cc(-c2cnc3cccnn23)c2cccnc2c1 | 2.33 µM | > 79 µM (inactive) |
| COc1ccccc1Cn1c(=O)c2ccccc2n2c(Sc3ncnc4sccc34)nnc12 | 3.9 µM | 5.9 µM |
| Nc1nc(/C=C/c2cccnc2)nc(-c2ccccc2O)n1 | 4.73 µM | 6.48 µM |
| COc1cc2c(c(OC)c1OC)-c1ccc(O)cc1C(NC(C)=O)CC2 (stereo unspecified) | > 79 µM (inactive) | > 79 µM (inactive) |
| Cc1ccnc(NC(=O)Cc2ccc(-c3ccccc3)cc2)c1 | 9.06 µM | 47.8 µM |
| CC1Sc2ccc(Cl)cc2-c2nc(N)ncc21 (stereo unspecified) | 6.98 µM | 75 µM (inactive) |
| CCc1ccc(Nc2n[n+](-c3ccccc3)c(-c3c(Cl)cccc3Cl)s2)cc1 | 5.47 µM | 6.29 µM |
| CS(=O)(=O)Nc1ccc(-c2cnc3cccnn23)cc1 | 2.5 µM | > 79 µM (inactive) |
| c1cnc2ccc(-n3ccnc3)cc2c1 | 10.3 µM | 60 µM (inactive) |
| Cc1nc([N+](=O)[O-])c(Sc2nc3ccccc3n2C)n1Cc1ccccc1 | 4.05 µM | 13 µM |
| c1nc(NCc2ccc3c(c2)OCO3)c2cc(-c3ccoc3)ccc2n1 | 0.34 µM | 5.93 µM |
| O=S1(=O)CCC(NC(=S)SCCOc2ccccc2)C1 (stereo unspecified) | 4.58 µM | 20.1 µM |
| Cc1nnc(NC(=O)Nc2ccc(Cl)c(Cl)c2)s1 | 2.78 µM | 15.3 µM |
| COc1cccc(Nc2ncnc3ccc(Br)cc23)c1 | 1.08 µM | 9.61 µM |
| CCN1CCN(Cc2ccc(NC(=O)c3ccc(C)c(NC(=O)c4cccc5[nH]ccc45)c3)cc2C(F)(F)F)CC1 | 7.33 µM | 47.7 µM |
| CN(c1ncnc(N)c1[N+](=O)[O-])C1CCCCC1 | 1.09 µM | > 79 µM (inactive) |
| O=C(NNC(=S)Nc1cccc(C(F)(F)F)c1)c1cccc(Cl)c1 | 4.81 µM | 9.54 µM |
| O=C(Nc1cccc(Cl)c1)Nc1cc(S(=O)(=O)N2CCCCC2)ccc1Cl | 6.4 µM | 9.07 µM |
| COc1ccc(CNc2nn3c(-c4cccc(C(=O)N(C)C)c4)cnc3s2)cc1 | 2.46 µM | 33.6 µM |
| COc1ccc(CN2C[C@H]3CCCN3c3cc(Br)ccc3S2(=O)=O)cc1 | 9.73 µM | 61.7 µM (inactive) |
